We go through 1 molecule from patent US20230338391A1, “TREATMENT FOR DEPRESSION” (TAKEDA PHARMACEUTICAL COMPANY LIMITED, priority 2020, published 2023).

Like-named read-outs stand apart in the source and are kept apart here.

By NOAEL is commonly meant the highest tested level that showed no adverse finding.

Data set [1] is described as follows: 13-week NHP GLP toxicity study: clinical signs, EEG/EMG telemetry, pathology. Type of data set: in vivo, Monkey (Macaca fascicularis). As to conditions: cynomolgus monkey, in vivo, oral gavage once daily, 13 weeks, read-out: no-observed-adverse-effect level (NOAEL). How it is done:
(§1) The appropriate volume of reverse osmosis water was added into a suitable sized container and heated between 70° C. and 90° C. An appropriate amount of MC (METOLOSE SM-100, Shin-Etsu Chemical Co Ltd) was weighed and transferred (while stirring) to the container with heated reverse osmosis water. The solution was cooled down until a clear solution was obtained (an ice bath was used). The solution was stored refrigerated (set to 2-8° C.) until used. Unused reference item/vehicle was discarded when not needed anymore. To make a 0.2 w/v % suspension of COMPOUND A, an appropriate amount of the test item was weighed. A small volume of vehicle was added to slowly wet the test item. The appropriate volume of vehicle was added to reach the final volume and the formulation was homogenized using a homogenizer until a uniform suspension was achieved and stirred for 30 to 59 minutes. The 0.2 w/v % suspension was then diluted with the 0.5 w/v % MC in reverse osmosis water solution to make 0.12, 0.06 and 0.006 w/v % suspensions. However, on Oct. 1, 2015, the 1.2 mg/mL formulation was prepared by dissolving the appropriate amount of COMPOUND A in the vehicle, instead of diluting the 2 mg/mL formulation to reach the appropriate concentration. This deviation had no impact on the study since the appropriate concentration was prepared.
(§2) After suitable acclimation to the dosing procedure, the reference item (0.5% methylcellulose (MC) in reverse osmosis water) was administered once by oral gavage during Phase 1 of the study. The objective of Phase 1 was to confirm the EEG morphologies in all animals before and after dosing procedures. The traces generated during Phase 1 were used for interpretation of Phase 2 data. Beginning 1 day later, the reference item or COMPOUND A was administered once daily by oral gavage for 90 days during Phase 2 as shown in Table 7.
(§3) Clinical signs (ill health, behavioral changes, etc.) were recorded on surviving animals twice daily during all phases of study and monitored continuously for at least 16 hours after the 1st, 3rd, 7th, 14th and 28th dose administration in Phase 2, using digital cameras (to minimize stress for the animals) or using direct observation when needed or during dose administration. Additional clinical observations were performed when deemed necessary.
(§4) EEGs and EMGs were obtained from the animals using telemetry transmitter leads inserted subcutaneously using bipolar derivations (EMG, C4-O2 and Cz-Oz).
(§5) EEG and EMG monitoring was recorded continuously (except during study designated procedures or other procedures such as data backup) from at least 72 hours prior to the first dose of Phase 1 to at least 24 hours after the 28th dose of Phase 2. EEG and EMG monitoring was also recorded continuously (except during study designated procedures or other procedures such as data backup) for a period of at least 36 hours (from at least 12 hours prior to dosing until at least 24 hours post-dosing) once in the 8th week of dosing and once towards the end of the dosing period (13th week of dosing) in Phase 2.
(§6) Using the NeuroScore software (Data Science International), EEGs were analyzed from at least 24 hours prior to the first dose of Phase 1 to at least 24 hours after the 28th dose in Phase 2, and for a period of at least 36 hours (from at least 12 hours prior to dosing until at least 24 hours post-dosing) once in the 8th week of dosing and once towards the end of the dosing period (13th week of dosing) in Phase 2. […] EMGs were used to aid in the interpretation of the EEG data.
(§7) EEGs were reviewed by the Neurologist at the following timepoints: 1-1.5, 2.5-5.5, and 7-7.5 hours following the 1st, 3rd, 7th, 14th and 28th dose administration in Phase 2. The observance of abnormal behaviors/convulsions in individual animals by laboratory personnel also triggered an EEG review for approximately the same time period during which the abnormal behavior was witnessed. […]

The test system of another data set is cynomolgus monkeys. The data set is described as above. The class given is in vivo, Monkey (Macaca fascicularis). How it is done:
as §1, §2, §3, §4, §5, §6, §7

For `CC1=CN2CCS(=O)(=O)N=C2C(c2ccc(OC3CCCCC3)cc2)=N1` [COMPOUND A, 9-[4-(Cyclohexyloxy)phenyl]-7-methyl-3,4-dihydropyrazino[2,1-c][1,2,4]thiadiazine 2,2-dioxide], the NOAEL at 13 weeks came to 3 mg/kg/day in data set [1] (female, females) and 10 mg/kg/day in data set [1] (male, males). Besides, the qEEG total power result in the data set with cynomolgus monkeys (0.3 and 3 mg/kg/day, after 2nd and 27th dose) was “associated with an increase in total EEG power”. Besides, the “clinical signs and EEG” value in the data set with cynomolgus monkeys (0.3 or 3.0 mg/kg/day, males or females) was “no adverse clinical signs or abnormal EEG changes”. The clinical signs result in the data set on cynomolgus monkeys (females, 6.0 mg/kg/day) is “myoclonic jerks, decreased activity, weakness, and uncoordination were observed”; in the data set with cynomolgus monkeys (females, 10.0 mg/kg/day) it was “salivation, excessive licking, decreased activity, weakness, lying on cage floor, nystagmus, uncoordination, muscle twitches and myoclonic jerks were observed”; in the data set with cynomolgus monkeys (males, 10 mg/kg/day), “decreased activity, tremors and circling were observed at 10 mg/kg/day but were not considered adverse”. The “generalized seizures (EEG)” value with cynomolgus monkeys (females, 10.0 mg/kg/day) is “Self-limiting generalized seizures, confirmed by EEG, were observed in two female monkeys”.
